Laboratory results from US20060009358A1, “Synergistically acting herbicidal mixtures” (priority 2002, published 2006).

How the values were obtained:
Assay in all cases: Herbicidal action, post-emergence treatment, greenhouse (damage 0-100% vs untreated control)
Assay type in all cases: in vivo
Setaria faberi = test system: Setaria faberi
From the text: (§1) The mixtures according to the invention were applied pre- or post-emergence (foliar treatment). The herbicidal compounds of component B and, if desired, of component C were applied in the formulation in which they are present as commercially available product.
(§2) The herbicidally active compounds of components A), B) and, if desired, C) were applied in succession or jointly, in the latter case in some cases as a tank mix and in some cases as a ready-mix, in the form of emulsions, aqueous solutions or-suspensions, the vehicle being water (300-400 l/ha). In the case of the field trials, application was effected with the aid of a mobile plot sprayer.
(§3) The test period extended over 3 to 8 weeks, and the stands were also observed at later points in time.
(§4) Damage by the herbicidal compositions was evaluated with reference to a scale of 0% to 100% in comparison with untreated control plots. 0 means no damage and 100 means complete destruction of the plants.
(§5) In these examples, the value E at which only an additive effect of the individual active ingredients is to be expected was calculated by the method of S. R. Colby (Calculating synergistic and antagonistic responses of herbicide combinations, Weeds 15, 20 pp (1967)).
(§6) This was done using the formula [formula] where • X=Percentage of the herbicidal action of component X) at an application rate of x; • Y=Percentage of the herbicidal action of component Y) at an application rate of y; • E=expected herbicidal action of component X)+Y) at rates of application x+y (in %).
(§7) If the value observed exceeds the value E calculated in accordance with Colby's formula, then synergism is present.

Abutilon theophrasti = test system: Abutilon theophrasti
From the text: as §1, §2, §3, §4, §5, §6, §7

Galium aparine = test system: Galium aparine
From the text: as §1, §2, §3, §4, §5, §6, §7

Echinochloa crus-galli = conditions: Table 5, application rate 3.91 g/ha ai
From the text: as §1, §2, §3, §4, §5, §6, §7

Brachiaria plantaginea = conditions: Table 8, application rate 125 g/ha ai
From the text: as §1, §2, §3, §4, §5, §6, §7

Pharbitis purpurea = conditions: Table 11, application rate 31.2 g/ha ai
From the text: as §1, §2, §3, §4, §5, §6, §7

Polygonum persicaria = test system: Polygonum persicaria
From the text: as §1, §2, §3, §4, §5, §6, §7

[1] = Table 3, application rate 3.91 g/ha ai
[2] = Table 4, application rate 7.81 g/ha ai

In the case of `O=C(O)c1nc(Cl)ccc1Cl` [IIb, clopyralid], the “Setaria faberi Damage” value (Setaria faberi; Table 6, application rate 250 g/ha ai) is reported as 20% and the “Setaria faberi Damage” value (Setaria faberi; Table 7, application rate 125 g/ha ai) is reported as 20%.

With `Cc1c(C(=O)c2cnn(C)c2O)ccc(S(C)(=O)=O)c1C1=NOCC1` [Ia.29, 4-[2-methyl-3-(4,5-dihydroisoxazol-3-yl)-4-methylsulfonyl-benzoyl]-1-methyl-5-hydroxy-1H-pyrazole] the “Abutilon theophrasti Damage” value (Abutilon theophrasti; [1]) was 60% and the “Galium aparine Damage” value (Galium aparine; [2]) was 70%.

`Cc1ccn2nc(S(=O)(=O)Nc3c(F)cccc3F)nc2n1` [IIa, flumetsulam] was tested, and the “Abutilon theophrasti Damage” value (Abutilon theophrasti; [1]) was 60%, the “Echinochloa crus-galli Damage” value (Echinochloa crus-galli) was 25% and the “Galium aparine Damage” value (Galium aparine; [2]) was 80%.

In the case of `CCNc1nc(Cl)nc(NC(C)C)n1` [atrazine], the “Abutilon theophrasti Damage” value (Abutilon theophrasti; Table 8, application rate 125 g/ha ai) is reported as 30%, the “Brachiaria plantaginea Damage” value (Brachiaria plantaginea) is reported as 25% and the “Galium aparine Damage” value (Galium aparine; Table 9, application rate 125 g/ha ai) is reported as 60%. For the same molecule, the “Pharbitis purpurea Damage” value (Pharbitis purpurea) was 60%, the “Polygonum persicaria Damage” value (Polygonum persicaria; Table 10, application rate 62.5 g/ha ai) was 40% and the “Polygonum persicaria Damage” value (Polygonum persicaria; Table 12, application rate 31.2 g/ha ai) was 30%. For the same molecule, the “Setaria faberi Damage” value (Setaria faberi; Table 11, application rate 31.2 g/ha ai) was 30%.
